Values quoted from earlier work, collected in patent US20130137781A1, “PHARMACEUTICAL PREPARATION FOR CONTROLLING WATER-SOLUBLE DRUG RELEASE” (priority 2010, published 2013).

Key:
[1] = common logarithm of n-octanol/water partition coefficient

Structure (SMILES) | Log P [1] | thermal stability in solution state
N[C@@H](Cc1ccccc1)C(=O)O [L-phenylalanine] | −1.5 | –
N[C@H](C(=O)O)[C@H](O)c1ccc(O)c(O)c1 [droxidopa] | −3.2 | thermally unstable in solution state
NS(=O)(=O)Cc1noc2ccccc12 [zonisamide] | 0.2 | –
